The text below walks through data of US10968222B2, “2-azabicyclo hexane JAK inhibitor compound” (THERAVANCE BIOPHARMA R&D IP, LLC, priority 2018, dated 2021).

Assay [1] relates to IL-13 induced STAT6 phosphorylation in BEAS-2B human lung epithelial cells. Nature of the assay: Inhibition of IL-13 stimulated pSTAT6 in BEAS-2B cells. The assay is classed as cell-based. The following applies: AlphaScreen, read-out: pIC50, inhibition of IL-13 stimulated pSTAT6 (converted). How it is done:
The AlphaScreen JAKI cellular potency assay was carried out by measuring interleukin-13 (IL-13, R&D Systems) induced STAT6 phosphorylation in BEAS-2B human lung epithelial cells (ATCC). The anti-STAT6 antibody (Cell Signaling Technologies) was conjugated to AlphaScreen acceptor beads (Perkin Elmer), while the anti-pSTAT6 (pTyr641) antibody (Cell Signaling Technologies) was biotinylated using EZ-Link Sulfo-NHS-Biotin (Thermo Scientific).
BEAS-2B cells were grown at 37° C. in a 5% CO2 humidified incubator in 50% DMEM/50% F-12 medium (Life Technologies) supplemented with 10% FBS (Hyclone), 100 U/mL penicillin, 100 μg/mL streptomycin (Life Technologies), and 2 mM GlutaMAX (Life Technologies). On day 1 of the assay, cells were seeded at a 7,500 cells/well density in white poly-D-lysine-coated 384-well plates (Corning) with 25 μL medium, and were allowed to adhere overnight in the incubator. […] After a minimum of 2 h incubation, the assay plates were read on the EnVision plate reader. AlphaScreen luminescence signals were recorded and utilized to calculate the percent inhibition values based on DMSO and background controls.
For dose-response analysis, percent inhibition data were plotted vs. compound concentrations, and IC50 values were determined from a 4-parameter robust fit model with the Prism software. Results may also be expressed as the negative logarithm of the IC50 value, pIC50.
(Alpha assays give light when donor and acceptor beads are brought close together.)

Assay [2] concerns IL-6 induced pSTAT3 in rat retina/choroid. Nature of the assay: Pharmacodynamic assay: inhibition of IL6-induced pSTAT3 in rats. The following applies: rat retina/choroid homogenates; 45 μg intravitreal dose; one hour after injection. The assay is classed as in vivo. On the procedure:
The ability of a single intravitreal administration of test compound to inhibit IL-6 induced pSTAT3 was measured in rat retina/choroid homogenates.
A solution formulation was prepared by dissolving compound 1 in 1% HPMC E5+15% HPβCD, pH7 to attain a target concentration of […]. Female Lewis rats were intravitreally (IVT) dosed (5 μL per eye) with either the vehicle, vehicle plus rat IL-6 (Peprotech; 0.5 μg), or a combination of IL-6 plus compound (0.5 μg IL-6 and 45 μg compound 1). Ocular tissues were dissected one hour after the IVT injection. The retina/choroid tissues were homogenized and pSTAT3 levels were measured using an AlphaLisa (PerkinElmer). The percent inhibition of IL-6-induced pSTAT3 was calculated in comparison to the vehicle and IL-6 groups.

Another assay has as its target T1, CDK7 (Homo sapiens, UniProt P50613).
T1 construct: made in house; host or cells: E. coli BL21-derived host (T7 phage) or HEK-293 cells
Nature of the assay: Kinome screen, CDK7. The assay is classed as binding. The following applies: screened at 1 μM. On the procedure: Compounds 1 and C-1 were screened against other kinases to evaluate their selectivity profile.
Kinase-tagged T7 phage strains were grown in parallel in 24-well blocks in an E. coli host derived from the BL21 strain. E. coli were grown to log-phase and infected with T7 phage from a frozen stock (multiplicity of infection=0.4) and incubated with shaking at 32° C. until lysis (90-150 minutes). The lysates were centrifuged (6,000×g) and filtered (0.2 μm) to remove cell debris. The remaining kinases were produced in HEK-293 cells and subsequently tagged with DNA for qPCR detection.
Streptavidin-coated magnetic beads were treated with biotinylated small molecule ligands for 30 minutes at room temperature to generate affinity resins for kinase assays. The liganded beads were blocked with excess biotin and washed with blocking buffer (SeaBlock (Pierce), 1% BSA, 0.05% Tween 20, 1 mM DTT) to remove unbound ligand and to reduce non-specific phage binding. Binding reactions were assembled by combining kinases, liganded affinity beads, and test compounds in 1× binding buffer (20% SeaBlock, 0.17×PBS, 0.05% Tween 20, 6 mM DTT). Test compounds were prepared as 40× stocks in 100% DMSO and directly diluted into the assay. All reactions were performed in polypropylene 384-well plates in a final volume of 0.04 ml. […] The kinase concentration in the eluates was measured by qPCR. […]

T1 sequence (P50613 whole entry): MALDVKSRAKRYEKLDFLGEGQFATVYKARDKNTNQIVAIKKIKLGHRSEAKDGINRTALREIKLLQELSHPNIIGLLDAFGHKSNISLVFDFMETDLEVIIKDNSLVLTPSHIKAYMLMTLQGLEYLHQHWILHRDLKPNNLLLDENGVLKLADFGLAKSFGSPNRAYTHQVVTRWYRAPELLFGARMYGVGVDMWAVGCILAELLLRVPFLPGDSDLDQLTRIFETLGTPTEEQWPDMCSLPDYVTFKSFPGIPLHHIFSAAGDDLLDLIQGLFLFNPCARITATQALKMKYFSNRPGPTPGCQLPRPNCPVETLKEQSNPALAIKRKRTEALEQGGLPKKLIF

The term inhibition denotes the relative decrease from the control value, in per cent. Low readings indicate a weak effect, high ones a strong effect. Turning to `CCc1cc(O)c(F)cc1-c1cc(F)c2c(-c3nc4c([nH]3)CCN(C(=O)[C@]35C[C@H]3CCN5)C4)n[nH]c2c1` [Compound 1, (1S,5R)-2-azabicyclo[3.1.0]hexan-1-yl(2-(6-(2-ethyl-5-fluoro-4-hydroxyphenyl)-4-fluoro-1H-indazol-3-yl)-6,7-dihydro-3H-imidazo[4,5-c]pyridin-5(4H)-yl)methanone], the IC50 in assay [1] is 10 nM. Besides, in assay [2], the “inhibition of IL-6-induced pSTAT3” value worked out at 84%. Besides, on CDK7, at 1 µM the inhibition was 82%.
